In article PMC3005762 (Chemical communications (Cambridge, England), 2010):

Target: T1, DC-SIGN (Homo sapiens, UniProt Q9NNX6)
T1 sequence (Q9NNX6 59-404 limits assumed): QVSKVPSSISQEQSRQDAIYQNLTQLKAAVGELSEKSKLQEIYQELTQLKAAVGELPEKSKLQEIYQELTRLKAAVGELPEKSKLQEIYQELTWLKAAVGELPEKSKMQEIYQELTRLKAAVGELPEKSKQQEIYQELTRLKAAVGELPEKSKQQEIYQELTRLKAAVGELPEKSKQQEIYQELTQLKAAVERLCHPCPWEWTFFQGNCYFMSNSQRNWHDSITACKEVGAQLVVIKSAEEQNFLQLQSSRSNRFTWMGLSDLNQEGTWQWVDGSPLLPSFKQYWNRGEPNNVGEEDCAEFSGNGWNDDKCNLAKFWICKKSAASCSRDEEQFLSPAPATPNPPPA
Assay type: binding

- IC50: 11.2 ± 0.7 mM
SMILES: CC(=O)N[C@@H]1C(O)O[C@H](CO)[C@@H](O)[C@@H]1O (stereo partly shown) [N-acetylmannosamine]
